Experimental data as given in US20240025906A1 (NEURON23, INC., priority 2022, published 2024).
Where two headings read alike, the source gives them in different places.

How the values were obtained:
TYK2 JH2 = target: T1, TYK2 JH2 (Homo sapiens, UniProt P29597); test: TYK2 JH2 binding assay (KINOMEscan KdELECT competitive binding); settings: TYK2 JH2 domain
T1 construct: purchased DiscoverX (KINOMEscan KdELECT service); host or cells: E. coli BL21-derived (T7 phage display) or HEK-293
Outline: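 Beads carrying a biotinylated ligand were mixed with tagged JH2 kinase and compound (11 points, 3-fold steps, 0.9% DMSO) and shaken 1 h at room temperature. After washing, kinase was released with 0.5 μM untagged ligand over 30 min and measured by qPCR to derive Kd.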

[1] = test system: JAK1/TYK2 pSTAT5 (Tyr694/699) in THP-1 cell line; test: IFNa-stimulated JAK1/TYK2 pSTAT5 (Tyr694/699) inhibition cellular assay, AlphaLISA; type: cell-based; settings: Homo sapiens, THP-1 cells, AlphaLISA (Assay B)
Outline: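 pSTAT5 (Tyr694/699) in lysates quantified by AlphaLISA (615 nm) after 30 min IFNa stimulation (100 ng/mL stock) of THP-1 cells. The cells, 2e4 per well in HBSS, had first been exposed 1 h at 37° C. to eight 6-fold compound dilutions, 10000 down to 0.04 nM final. IC50 fitted by 4PL regression, bottom 0, Hill slope −1.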

[2] = DiscoverX KINOMEscan KdELECT (Assay A), read-out: Biochemical TYK2_DiscoverX_JH2_BND_Kd
[3] = IFNa-stimulated, read-out: Cellular_THP1_IFNa-pSTATS_TYK2
[4] = KINOMEscan KdELECT (Assay A), read-out: Biochemical TYK2_DiscoverX_JH2_BND_Kd
[5] = IFNa-stimulated pSTAT5 (Tyr694/699), read-out: Cellular_THP1_IFNa-pSTATS_TYK2
[6] = KINOMEscan KdELECT (Assay A), read-out: Biochemical TYK2_JH2_Kd
[7] = IFNa-stimulated, read-out: Cellular THP1_IFNa-pSTATS_IC50

T1 sequence (P29597 589-875 limits assumed): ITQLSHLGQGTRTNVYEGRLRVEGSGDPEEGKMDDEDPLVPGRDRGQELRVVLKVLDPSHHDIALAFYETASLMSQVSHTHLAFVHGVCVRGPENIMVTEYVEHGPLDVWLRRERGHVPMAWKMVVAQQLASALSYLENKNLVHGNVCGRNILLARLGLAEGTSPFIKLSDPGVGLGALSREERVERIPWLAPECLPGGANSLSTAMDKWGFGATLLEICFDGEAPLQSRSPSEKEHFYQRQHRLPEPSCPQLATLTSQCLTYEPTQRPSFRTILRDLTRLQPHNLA

Row | Structure (SMILES) | Kd (TYK2 JH2; [2]) [nM] | IC50 [1, 3] [nM] | Kd (TYK2 JH2; [4]) [nM] | other results
1 | [2H]C([2H])([2H])Nc1ncc(-c2nc3cc(N4C5CCC4COC5)ccc3o2)c2cc(NC(=O)[C@H]3C[C@H]3C)ncc12 [Example 455, (1S,2R)—N-(5-(5-(3-oxa-8-azabicyclo[3.2.1]octan-8-yl)benzo[d]oxazol-2-yl)-8-((methyl-d3)amino)-2,7-naphthyridin-3-yl)-2-methylcyclopropane-1-carboxamide] | ≤ 100 | ≤ 500 |  | 
2 | CNc1ncc(-c2nc3ccc(N4CC(C)OC(C)C4)cn3n2)c2cc(NC(=O)C3CC3)ncc12 (racemic) [Example 480, N-(5-(6-(2,6-dimethylmorpholino)-[1,2,4]triazolo[1,5-a]pyridin-2-yl)-8-(methylamino)-2,7-naphthyridin-3-yl)cyclopropanecarboxamide (trans racemate)] | ≤ 100 | ≤ 500 |  | 
3 | CNc1ncc(-c2nc3cc(OCc4ccccc4)ccc3o2)c2cc(NC(=O)C3CC3)ncc12 [Example 234, N-(5-(5-(benzyloxy)benzo[d]oxazol-2-yl)-8-(methylamino)-2,7-naphthyridin-3-yl)cyclopropanecarboxamide] | ≤ 100 | ≤ 500 |  | 
4 | [2H]C([2H])([2H])Nc1ncc(-c2nc3ccc(OC)cn3n2)c2cc(NC(=O)[C@H]3C[C@H]3C)ncc12 [Example 570, (1S,2R)—N-(5-(6-methoxy-[1,2,4]triazolo[1,5-a]pyridin-2-yl)-8-((methyl-d3)amino)-2,7-naphthyridin-3-yl)-2-methylcyclopropane-1-carboxamide] | ≤ 100 | ≤ 500 |  | 
5 | CNc1ncc(-c2nc3cc(N4CCOC(C(F)F)C4)ccc3o2)c2cc(NC(=O)C3CC3)ncc12 (stereo not drawn) [Example 329, N-(5-(5-(2-(difluoromethyl)morpholino)benzo[d]oxazol-2-yl)-8-(methylamino)-2,7-naphthyridin-3-yl)cyclopropanecarboxamide] | ≤ 100 | ≤ 500 |  | 
6 | CNc1ncc(-c2nc3ccc(N4CCO[C@@H](C)C4)cn3n2)c2cc(NC(=O)[C@@H]3C[C@@H]3C)ncc12 [Example 590, (1R,2S)-2-methyl-N-(8-(methylamino)-5-(6-((S)-2-methylmorpholino)-[1,2,4]triazolo[1,5-a]pyridin-2-yl)-2,7-naphthyridin-3-yl)cyclopropane-11-carboxamide] | ≤ 100 | ≤ 500 |  | 
7 | CNc1ncc(-c2cc3ccc(OC)cn3n2)c2cc(NC(=O)[C@H]3C[C@H]3C)ncc12 [Example 877, (1S,2R)—N-(5-(6-methoxypyrazolo[1,5-a]pyridin-2-yl)-8-(methylamino)-2,7-naphthyridin-3-yl)-2-methylcyclopropane-1-carboxamide] |  | ≤ 500 | ≤ 100 | 
8 | CNc1ncc(-c2cn3cc(N4CCO[C@@H](C)C4)ccc3n2)c2cc(NC(=O)C3(F)CC3)ncc12 [Example 1085, 1-fluoro-N-[8-(methylamino)-5-[6-[(2S)-2-methylmorpholin-4-yl]imidazo[1,2-a]pyridin-2-yl]-2,7-naphthyridin-3-yl]cyclopropanecarboxamide] |  |  | ≤ 100 | IC50 [1, 5]: ≤ 500 nM
9 | CNc1ncc(-c2nc3ccc(N4CCOCC4)cn3n2)c2cc(NC(=O)[C@@H]3C[C@@H]3C(F)F)ncc12 (single isomer, unassigned) [Example 535] | ≤ 100 | ≤ 500 |  | 
10 | CNc1ncc(-c2cnc(C)o2)c2cc(NC(=O)C3CC3)ncc12 [Example 130, N-(8-(methylamino)-5-(2-methyloxazol-5-yl)-2,7-naphthyridin-3-yl)cyclopropanecarboxamide] |  |  |  | Kd (TYK2 JH2; [6]): ≤ 100 nM; IC50 [1, 7]: > 500 nM
11 | CNc1ncc(-c2nc3ccc(N4CC5CN(C)CC(C4)O5)cn3n2)c2cc(NC(=O)C3CC3)ncc12 [Example 504, N-(5-(6-(7-methyl-9-oxa-3,7-diazabicyclo[3.3.1]nonan-3-yl)-[1,2,4]triazolo[1,5-a]pyridin-2-yl)-8-(methylamino)-2,7-naphthyridin-3-yl)cyclopropanecarboxamide] | ≤ 100 | ≤ 500 |  | 
12 | CNc1ncc(-c2nc3cc(OCCC#N)ccc3o2)c2cc(NC(=O)C3CC3)ncc12 [Example 227, N-(5-(5-(2-cyanoethoxy)benzo[d]oxazol-2-yl)-8-(methylamino)-2,7-naphthyridin-3-yl)cyclopropanecarboxamide] | ≤ 100 | ≤ 500 |  | 
13 | CNc1ncc(-c2nc3ccc(N4CCOCC4)cn3n2)c2cc(NC(=O)[C@H]3C[C@H]3C)ncc12 [Example 525, (1S,2R)-2-methyl-N-(8-(methylamino)-5-(6-morpholino-[1,2,4]triazolo[1,5-a]pyridin-2-yl)-2,7-naphthyridin-3-yl)cyclopropane-1-carboxamide] | ≤ 100 | ≤ 500 |  | 
14 | CNc1ncc(-c2ccc(C)s2)c2cc(NC(=O)C3CC3)ncc12 [Example 22, N-(8-(methylamino)-5-(5-methylthiophen-2-yl)-2,7-naphthyridin-3-yl)cyclopropanecarboxamide] |  |  |  | Kd (TYK2 JH2; [6]): ≤ 100 nM; IC50 [1, 7]: > 500 nM
15 | CNc1ncc(-c2ccnn2C)c2cc(NC(=O)C3CC3)ncc12 [Example 6, N-(5-(1-methyl-1H-pyrazol-5-yl)-8-(methylamino)-2,7-naphthyridin-3-yl)cyclopropanecarboxamide] |  |  |  | Kd (TYK2 JH2; [6]): ≤ 100 nM; IC50 [1, 7]: > 500 nM
16 | CNc1ncc(-c2nc3cc(OC)ccc3o2)c2cc(NC(=O)NC3CC3)ncc12 [Example 1097, 1-cyclopropyl-3-(5-(5-methoxybenzo[d]oxazol-2-yl)-8-(methylamino)-2,7-naphthyridin-3-yl)urea] |  |  | ≤ 100 | IC50 [1, 5]: ≤ 500 nM
17 | CC[C@H]1C[C@@H]1C(=O)Nc1cc2c(-c3nc4ccc(N5CCOCC5)cn4n3)cnc(NC)c2cn1 (single isomer, unassigned) [Example 585] | ≤ 100 | ≤ 500 |  | 
18 | CNc1ncc(-c2nc3ccc(N4CCO[C@@H](C)C4)c(Cl)n3n2)c2cc(NC(=O)C3CC3)ncc12 [Example 509, (S)—N-(5-(5-chloro-6-(2-methylmorpholino)-[1,2,4]triazolo[1,5-a]pyridin-2-yl)-8-(methylamino)-2,7-naphthyridin-3-yl)cyclopropanecarboxamide] | ≤ 100 | ≤ 500 |  | 

Further lines, with some results ahead:

Row | Kd (TYK2 JH2; [2]) [nM] | IC50 [1, 3] [nM] | Kd (TYK2 JH2; [4]) [nM] | Structure (SMILES) | other results
19 |  |  | ≤ 100 | CNc1ncc(C#Cc2ccc(N3CCOCC3)cc2)c2cc(NC(=O)[C@H]3C[C@H]3C)ncc12 [Example 1076, (1S,2R)-2-methyl-N-(8-(methylamino)-5-((4-morpholinophenyl)ethynyl)-2,7-naphthyridin-3-yl)cyclopropane-1-carboxamide] | IC50 [1, 5]: ≤ 500 nM
20 |  | ≤ 500 | ≤ 100 | CNc1ncc(C#Cc2ccc3c(C)noc3c2)c2cc(NC(=O)C3CC3)ncc12 [Example 748, N-(8-(methylamino)-5-((3-methylbenzo[d]isoxazol-6-yl)ethynyl)-2,7-naphthyridin-3-yl)cyclopropanecarboxamide] | 
21 |  | ≤ 500 | ≤ 100 | CNc1ncc(C#Cc2cn(C)c(C(F)(F)F)n2)c2cc(NC(=O)C3CC3)ncc12 [Example 897, N-(5-((1-methyl-2-(trifluoromethyl)-1H-imidazol-4-yl)ethynyl)-8-(methylamino)-2,7-naphthyridin-3-yl)cyclopropanecarboxamide] | 
22 | ≤ 100 | ≤ 500 |  | CNc1ncc(-c2nc3ccc(N4CCC(F)C4)cn3n2)c2cc(NC(=O)C3CC3)ncc12 (stereo not drawn) [Example 486, N-(5-(6-(3-fluoropyrrolidin-1-yl)-[1,2,4]triazolo[1,5-a]pyridin-2-yl)-8-(methylamino)-2,7-naphthyridin-3-yl)cyclopropanecarboxamide] | 
23 | ≤ 100 | ≤ 500 |  | CNc1ncc(-c2nc3cc(OC4CC4)ccc3o2)c2cc(NC(=O)C3CC3)ncc12 [Example 223, N-(5-(5-cyclopropoxybenzo[d]oxazol-2-yl)-8-(methylamino)-2,7-naphthyridin-3-yl)cyclopropanecarboxamide] | 
24 |  |  | ≤ 100 | CNc1ncc(C#Cc2ccc3nc(C(F)F)sc3c2)c2cc(NC(=O)C3CC3)ncc12 [Example 996, N-(5-((2-(difluoromethyl)benzo[d]thiazol-6-yl)ethynyl)-8-(methylamino)-2,7-naphthyridin-3-yl)cyclopropanecarboxamide] | IC50 [1, 5]: ≤ 500 nM
25 |  |  | ≤ 100 | CNc1ncc(C#Cc2ccc(Cl)cn2)c2cc(NC(=O)C3CC3)ncc12 [Example 995, N-(5-((5-chloropyridin-2-yl)ethynyl)-8-(methylamino)-2,7-naphthyridin-3-yl)cyclopropanecarboxamide] | IC50 [1, 5]: ≤ 500 nM
26 |  | ≤ 500 | ≤ 100 | CNc1ncc(C#Cc2ccc3c(c2)CCC(CF)O3)c2cc(NC(=O)C3CC3)ncc12 (stereo not drawn) [Example 974, N-[5-[2-[2-(fluoromethyl)chroman-6-yl]ethynyl]-8-(methylamino)-2,7-naphthyridin-3-yl]cyclopropanecarboxamide] | 
27 | ≤ 100 | ≤ 500 |  | CNc1ncc(-c2nc3c(Cl)cccc3o2)c2cc(NC(=O)C3CC3)ncc12 [Example 204, N-(5-(4-chlorobenzo[d]oxazol-2-yl)-8-(methylamino)-2,7-naphthyridin-3-yl)cyclopropanecarboxamide] | 
